Experiment [1] in a line: viability loss in HEK293T cells – cell-based, cherry-picks, cytotoxicity control for HIV Vif inhibitor project, dose response (AID 652208). It is filed as functional.
Experiment [2] addresses T1, Corticotropin-releasing factor receptor 2/Corticotropin-releasing factor-binding protein (Homo sapiens, UniProt P24387+Q13324).
T1 sequence (Q13324 whole entry): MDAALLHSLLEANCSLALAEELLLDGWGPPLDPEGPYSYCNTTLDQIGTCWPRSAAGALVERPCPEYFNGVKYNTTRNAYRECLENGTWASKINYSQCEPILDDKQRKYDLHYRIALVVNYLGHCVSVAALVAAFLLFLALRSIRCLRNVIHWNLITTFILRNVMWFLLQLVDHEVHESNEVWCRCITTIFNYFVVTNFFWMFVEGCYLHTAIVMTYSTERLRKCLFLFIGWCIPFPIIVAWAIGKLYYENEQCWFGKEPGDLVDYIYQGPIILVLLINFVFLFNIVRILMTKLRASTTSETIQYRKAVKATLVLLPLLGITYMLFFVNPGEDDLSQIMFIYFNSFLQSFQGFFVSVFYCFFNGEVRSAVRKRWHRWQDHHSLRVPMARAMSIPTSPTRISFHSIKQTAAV
T1 sequence (P24387 whole entry): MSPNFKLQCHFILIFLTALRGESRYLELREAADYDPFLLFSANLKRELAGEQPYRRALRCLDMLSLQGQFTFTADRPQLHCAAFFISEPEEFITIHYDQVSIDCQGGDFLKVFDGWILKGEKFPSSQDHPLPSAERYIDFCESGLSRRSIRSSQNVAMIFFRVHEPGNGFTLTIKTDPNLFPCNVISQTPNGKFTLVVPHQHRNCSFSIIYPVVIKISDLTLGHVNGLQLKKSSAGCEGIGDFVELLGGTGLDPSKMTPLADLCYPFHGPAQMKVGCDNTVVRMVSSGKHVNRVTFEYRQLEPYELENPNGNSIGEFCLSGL
As to the kind of experiment: activators of CRF receptor 2 with binding protein – uHTS hits, confirmation (AID 602473). It is filed as functional. As to conditions: read-out: EC50_Mean.

Experiment [3] deals with T2, Sentrin-specific protease 1 (Homo sapiens, UniProt Q9P0U3).
T2 sequence (Q9P0U3 whole entry): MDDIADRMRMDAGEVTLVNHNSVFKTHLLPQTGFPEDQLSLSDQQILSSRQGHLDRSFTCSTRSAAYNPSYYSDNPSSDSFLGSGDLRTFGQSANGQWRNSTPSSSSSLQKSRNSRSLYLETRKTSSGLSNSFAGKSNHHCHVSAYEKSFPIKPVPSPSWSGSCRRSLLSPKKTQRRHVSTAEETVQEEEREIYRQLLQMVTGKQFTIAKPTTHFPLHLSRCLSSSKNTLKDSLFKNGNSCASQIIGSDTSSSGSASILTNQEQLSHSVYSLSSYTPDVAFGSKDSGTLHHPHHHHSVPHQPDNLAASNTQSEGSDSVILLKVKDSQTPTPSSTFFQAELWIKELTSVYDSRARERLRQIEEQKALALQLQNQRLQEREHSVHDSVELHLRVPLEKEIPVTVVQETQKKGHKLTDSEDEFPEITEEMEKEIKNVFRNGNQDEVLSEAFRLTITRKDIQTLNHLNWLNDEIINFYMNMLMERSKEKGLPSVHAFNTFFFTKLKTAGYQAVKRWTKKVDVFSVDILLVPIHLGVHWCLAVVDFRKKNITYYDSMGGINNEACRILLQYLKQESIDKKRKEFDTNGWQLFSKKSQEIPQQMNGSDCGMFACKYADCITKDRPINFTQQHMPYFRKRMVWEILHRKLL
As to the kind of experiment: SENP1 catalytic domain blockers, concentration series – biochemical, kinetic FRET, dose response (AID 651697). The following applies: read-out: IC50_Mean. It is filed as functional.

Experiment [4] deals with T2, Sentrin-specific protease 1. As to the kind of experiment: Dose response confirmation of small molecule inhibitors of the catalytic domain of the SUMO protease, SENP1 in a FRET assay. The following applies: read-out: IC50_Mean. It is filed as functional.
The subject of another experiment is Vero. As to the kind of experiment: viability loss in Vero cells – cell-based, plate reader, cherry-pick samples, cytotoxicity control, dose response (AID 687020). Type of experiment: functional. As to conditions: Chlorocebus sabaeus.
In the next experiment the target is T3, Caspase-6 (Homo sapiens, UniProt P55212).
T3 sequence (P55212 whole entry): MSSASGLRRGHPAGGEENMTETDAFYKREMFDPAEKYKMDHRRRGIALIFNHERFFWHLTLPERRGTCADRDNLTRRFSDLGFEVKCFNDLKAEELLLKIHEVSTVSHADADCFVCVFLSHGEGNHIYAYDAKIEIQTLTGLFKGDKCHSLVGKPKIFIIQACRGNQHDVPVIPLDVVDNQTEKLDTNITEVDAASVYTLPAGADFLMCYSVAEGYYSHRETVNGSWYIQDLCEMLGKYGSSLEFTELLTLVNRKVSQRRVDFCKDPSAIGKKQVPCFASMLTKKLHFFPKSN
As to the kind of experiment: inhibition of CASP6 peptide cleavage – biochemical, VEID-R110 fluorescence, cherry-pick, dose response (AID 720632).

Experiment [5] has as its target T4, Small ubiquitin-related modifier 1 (Homo sapiens, UniProt P63165). As to the kind of experiment: SUMO1 protein-protein binding blockers, potency – biochemical, FRET, dose response (AID 624383). It is filed as functional. As to conditions: read-out: IC50_Mean.
In experiment [6] the target is T4, Small ubiquitin-related modifier 1. As to the kind of experiment: SUMO1 protein interaction blockers, potency – biochemical, fluorescence polarization, uHTS hits, dose response (AID 624382). As to conditions: read-out: IC50_Mean. It is filed as functional. (In general: In fluorescence polarisation assays a small probe gives low polarisation when free and higher when bound to something large.)

The target of experiment [7] is T5, Carboxy-terminal domain RNA polymerase II polypeptide A small phosphatase 1 (Homo sapiens, UniProt Q9GZU7).
T5 sequence (Q9GZU7 whole entry): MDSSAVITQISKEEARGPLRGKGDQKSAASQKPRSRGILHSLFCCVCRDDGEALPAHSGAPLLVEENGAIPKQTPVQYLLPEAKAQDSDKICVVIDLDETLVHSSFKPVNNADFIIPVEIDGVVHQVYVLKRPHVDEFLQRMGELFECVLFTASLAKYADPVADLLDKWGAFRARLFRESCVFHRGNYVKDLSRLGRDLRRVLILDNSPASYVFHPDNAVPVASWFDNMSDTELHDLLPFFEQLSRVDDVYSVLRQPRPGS
As to the kind of experiment: CTDSP1 inhibitors, concentration-response, biochemical, absorbance readout, ultra-high-throughput screen actives (AID 540297). Type of experiment: functional.

In experiment [8] the test system is Streptococcus sp. 'group A'. As to the kind of experiment: Streptococcus pyogenes SK(-)GAS viability under kanamycin – luminescence, BacTiterGlo, confirmation, counter-screen for streptokinase expression inhibitor project, dose response (AID 1900). Type of experiment: functional, organism-based. For orientation: A counterscreen serves to expose hits that act by an unwanted route or on another target.

The subject of another experiment is Streptococcus. As to the kind of experiment: GAS UMAA2166 growth inhibition – luminescence, BacTiterGlo, counter-screen for streptokinase expression inhibitor project, dose response (AID 1915).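 Also: potency for reduction of bacterial viability or growth.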 Type of experiment: functional, organism-based.
In a further experiment the target is T6, Streptokinase A (Streptococcus pyogenes serotype M1, UniProt P10520).
T6 sequence (P10520 whole entry): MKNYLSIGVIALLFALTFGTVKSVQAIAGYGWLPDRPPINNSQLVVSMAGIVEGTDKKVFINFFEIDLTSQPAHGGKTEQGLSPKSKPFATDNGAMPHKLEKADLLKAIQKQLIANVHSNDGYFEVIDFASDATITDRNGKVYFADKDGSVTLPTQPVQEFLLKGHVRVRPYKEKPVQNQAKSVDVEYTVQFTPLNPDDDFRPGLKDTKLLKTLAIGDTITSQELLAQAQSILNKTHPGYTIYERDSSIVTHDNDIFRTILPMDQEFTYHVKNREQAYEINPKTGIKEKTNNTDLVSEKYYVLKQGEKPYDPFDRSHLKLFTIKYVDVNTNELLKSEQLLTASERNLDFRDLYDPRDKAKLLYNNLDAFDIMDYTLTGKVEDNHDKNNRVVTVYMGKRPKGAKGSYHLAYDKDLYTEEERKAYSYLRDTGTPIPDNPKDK
As to the kind of experiment: viability-normalized secreted streptokinase activity reduction – plasminogen activation absorbance, OD405, dose response (AID 1914).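 Also: secreted streptokinase activity via plasminogen activation per viability signal from cell pellet.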 It is filed as functional, Streptococcus pyogenes M1 GAS.

In experiment [9] the target is Melanin-concentrating hormone receptor 1 (Homo sapiens, UniProt Q99705). As to the kind of experiment: Late-stage fluorescence-based counterscreen for antagonists of the G-protein coupled receptor 7 (GPR7): cell-based dose response assay to identify antagonists of the melanin-concentrating hormone receptor 1 (MCHR1) Set 6. It is filed as functional.
In experiment [10] the target is T7, Neuropeptides B/W receptor type 1 (Homo sapiens, UniProt P48145).
T7 sequence (P48145 whole entry): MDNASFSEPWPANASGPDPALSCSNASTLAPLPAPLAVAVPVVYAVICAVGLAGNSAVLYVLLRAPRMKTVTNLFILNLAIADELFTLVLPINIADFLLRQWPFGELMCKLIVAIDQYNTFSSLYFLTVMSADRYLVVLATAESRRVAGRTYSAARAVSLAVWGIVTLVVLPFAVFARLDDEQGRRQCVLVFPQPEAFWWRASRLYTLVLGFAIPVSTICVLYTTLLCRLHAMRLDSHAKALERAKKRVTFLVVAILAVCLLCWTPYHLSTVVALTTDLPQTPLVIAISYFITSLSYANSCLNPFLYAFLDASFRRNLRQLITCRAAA
As to the kind of experiment: human NPBW1 receptor blockade, IC50 – cell-based, fluorescence, dose response, set 6, late-stage follow-up (AID 588583). Type of experiment: functional.

Active and inactive are the calls of the source.

The term AC50 denotes the midpoint of the concentration-response curve, whichever way the signal moves.

T4 sequence (P63165 whole entry): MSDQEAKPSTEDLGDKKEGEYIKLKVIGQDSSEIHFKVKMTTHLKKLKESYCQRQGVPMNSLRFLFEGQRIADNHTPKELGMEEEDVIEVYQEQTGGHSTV
Chain of Melanin-concentrating hormone receptor 1 (Q99705 whole entry): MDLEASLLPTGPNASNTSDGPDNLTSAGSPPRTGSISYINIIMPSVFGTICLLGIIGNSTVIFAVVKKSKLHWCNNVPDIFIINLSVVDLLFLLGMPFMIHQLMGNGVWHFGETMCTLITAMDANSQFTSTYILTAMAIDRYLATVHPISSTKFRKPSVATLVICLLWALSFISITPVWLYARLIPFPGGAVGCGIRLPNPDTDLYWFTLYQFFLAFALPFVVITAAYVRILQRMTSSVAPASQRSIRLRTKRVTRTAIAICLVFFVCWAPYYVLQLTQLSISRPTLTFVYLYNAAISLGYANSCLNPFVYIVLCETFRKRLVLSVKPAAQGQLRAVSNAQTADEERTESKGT

As for `Cc1ccc(CNC(=O)c2cccc3c2C(=O)c2ccc(N4CCC(C)CC4)cc2S3(=O)=O)cc1`, the AC50 in experiment [1] was 39.3 µM (active). Further, in [2], the EC50 was 5.51 µM (active).

As to `Cc1c(C#N)c(O)nc(O)c1N=Nc1ccc(Br)cc1C(=O)O`, the IC50 in experiment [3] is 18.1 µM (active); in experiment [4], 10.6 µM (active).

Take `COCCNC(=O)c1cc2cc3ccc(OC)cc3nc2o1`: the AC50 in the experiment with Vero is 27.7 µM (active).

Turning to `CC1=CCC(C(=O)O)C(C(=O)NC2CCCCC2)C1` (stereo not drawn), the AC50 on Caspase-6 was 10.2 µM (active). Also, the values for the IC50 in experiment [5], in experiment [6] and in experiment [7] were 20.4 µM (inactive), > 66.6 µM (inactive) and 33.8 µM (active), respectively.

With `COC(=O)c1c(NC(=O)c2ccccc2)sc(C(=O)c2ccccc2)c1C`, the IC50 in experiment [3] was 15.6 µM (active); in experiment [4], 21.3 µM (inactive). Also, the figures for the EC50 (in [8]; in the experiment with Streptococcus; on Streptokinase A) were 6.12 µM (active), 18.4 µM (active) and > 150 µM (not active), respectively.

On to `O=C(c1ccncc1)N1CCCC(N2CCN(c3cccc(C(F)(F)F)c3)CC2)C1` (stereo not drawn), for which, in the experiment with Vero, the AC50 was 31.8 µM (active).

On to `Cc1ccc(S(=O)(=O)c2nc(-c3ccccc3Cl)oc2N(C)C2CCN(C)CC2)cc1`, for which, in experiment [1], the AC50 was 23.3 µM (active).

With `COc1ccc(Oc2c(Cl)cnn(Cc3ccccc3[N+](=O)[O-])c2=O)cc1`, the IC50 in [9] and in experiment [10] was 1.41 µM (active) each time.

For the origin of these results see ChEMBL document CHEMBL1201862, “PubChem BioAssay data set” (2004).
